Our source for the IC50 and Ki values is patent US10793563B2, “GCN2 inhibitors and uses thereof” (Merck Patent GmbH, priority 2018, dated 2020).

The first experiment deals with GCN2 kinase (Homo sapiens (Human), UniProt Q9P2K8). The experiment is described as follows: GCN2 Enzyme Inhibition Assay (Transcreener ADP2 fluorescence polarization). In kind it is biochemical. To be noted: 280 μM ATP, 200 μM (RS)7 peptide, 4 nM GCN2, 25° C. The protocol: Compounds were screened for their ability to inhibit GCN2 kinase activity using a Transcreener® ADP^2 fluorescence polarization assay that detects ADP levels (BellBrook Labs, WI). Assays were carried out in a buffer consisting of 25 mM Tris-HCl (pH 7.5), 50 mM NaCl, 10 mM MgCl2 and 1 mM DTT. […] Assays were carried out at 25° C. in the presence of a (typical) final concentration of 4 nM GCN2 kinase. An assay buffer containing GCN2 kinase and (RS)7 was prepared. […] The plate was incubated for 10 minutes at 25° C. prior to the addition of 4.7 μL of ATP stock buffer to initiate the enzyme reaction. The reaction was allowed to proceed for 1 hour at 25° C., prior to the addition of 10 μL detection buffer (consisting of appropriate concentrations of ADP^2 antibody and ADP Alexa633 tracer in 1× stop and detect buffer as supplied by BellBrook Labs). […] Percentage inhibition of enzyme activity was then calculated at each compound dose. IC50 and Ki(app) (using known assay and kinetic parameters) values were calculated from percentage inhibition data using a non-linear, tight-binding algorithm. All data analysis was undertaken using the Screener® software package (Genedata, Switzerland).
Chain of GCN2 kinase (Q9P2K8 whole entry): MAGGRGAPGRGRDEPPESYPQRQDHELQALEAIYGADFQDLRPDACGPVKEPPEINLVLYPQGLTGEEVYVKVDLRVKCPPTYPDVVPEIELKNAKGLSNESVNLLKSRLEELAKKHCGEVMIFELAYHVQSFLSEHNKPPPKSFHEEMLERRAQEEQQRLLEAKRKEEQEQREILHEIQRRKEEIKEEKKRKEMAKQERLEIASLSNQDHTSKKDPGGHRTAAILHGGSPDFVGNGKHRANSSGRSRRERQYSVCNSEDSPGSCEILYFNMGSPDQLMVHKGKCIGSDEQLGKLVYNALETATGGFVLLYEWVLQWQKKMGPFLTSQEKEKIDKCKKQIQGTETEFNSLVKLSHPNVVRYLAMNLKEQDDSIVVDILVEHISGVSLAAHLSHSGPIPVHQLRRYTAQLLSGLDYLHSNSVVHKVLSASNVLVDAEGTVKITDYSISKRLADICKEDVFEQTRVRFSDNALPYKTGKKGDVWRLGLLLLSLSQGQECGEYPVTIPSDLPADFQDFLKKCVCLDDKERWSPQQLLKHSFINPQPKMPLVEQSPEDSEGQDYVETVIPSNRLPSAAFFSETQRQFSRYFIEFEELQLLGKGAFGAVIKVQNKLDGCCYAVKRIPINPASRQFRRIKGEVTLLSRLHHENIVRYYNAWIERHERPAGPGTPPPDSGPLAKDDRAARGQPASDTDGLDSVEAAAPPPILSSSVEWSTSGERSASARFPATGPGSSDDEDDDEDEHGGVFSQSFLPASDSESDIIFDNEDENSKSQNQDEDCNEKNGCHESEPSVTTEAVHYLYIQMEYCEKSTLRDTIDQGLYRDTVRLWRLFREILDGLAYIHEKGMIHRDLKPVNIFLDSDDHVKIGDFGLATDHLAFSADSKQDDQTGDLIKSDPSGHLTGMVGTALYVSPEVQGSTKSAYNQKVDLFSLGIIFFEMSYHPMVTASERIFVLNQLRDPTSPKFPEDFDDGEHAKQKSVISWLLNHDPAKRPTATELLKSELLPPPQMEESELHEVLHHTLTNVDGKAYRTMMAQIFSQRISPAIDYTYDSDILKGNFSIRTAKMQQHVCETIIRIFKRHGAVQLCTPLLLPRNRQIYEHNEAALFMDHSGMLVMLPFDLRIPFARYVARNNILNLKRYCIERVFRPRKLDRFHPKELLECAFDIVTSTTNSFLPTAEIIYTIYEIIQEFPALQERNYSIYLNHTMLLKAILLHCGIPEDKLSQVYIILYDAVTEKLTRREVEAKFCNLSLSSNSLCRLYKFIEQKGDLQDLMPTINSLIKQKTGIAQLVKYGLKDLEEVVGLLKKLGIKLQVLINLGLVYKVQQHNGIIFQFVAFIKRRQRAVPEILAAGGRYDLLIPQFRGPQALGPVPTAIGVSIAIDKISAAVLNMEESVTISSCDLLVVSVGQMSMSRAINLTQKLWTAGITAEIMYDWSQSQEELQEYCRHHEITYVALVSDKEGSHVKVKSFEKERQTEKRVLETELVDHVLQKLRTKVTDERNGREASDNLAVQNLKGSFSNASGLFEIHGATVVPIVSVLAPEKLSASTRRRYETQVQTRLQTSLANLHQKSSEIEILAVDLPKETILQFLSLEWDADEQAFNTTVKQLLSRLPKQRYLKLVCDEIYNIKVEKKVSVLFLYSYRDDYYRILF
`OCc1cn(C2CCCN(c3ccnc(-c4cnc5ccc(C(F)(F)F)cn45)n3)C2)nn1` (centres unmarked) [I-382, (1-(1-(2-(6-(trifluoromethyl)imidazo[1,2-a]pyridin-3-yl)pyrimidin-4-yl)piperidin-3-yl)-1H-1,2,3-triazol-4-yl)methanol]: the IC50 was 0.1 to 1 µM.

With `O=C(N1CCN(c2ccnc(-c3cnc4ccc(C(F)(F)F)cn34)n2)CC1c1cn[nH]c1)C1(C(F)F)CC1` (centres unmarked) [I-488, (2-(1H-pyrazol-4-yl)-4-(2-(6-(trifluoromethyl)imidazo[1,2-a]pyridin-3-yl)pyrimidin-4-yl)piperazin-1-yl)(1-(difluoromethyl)cyclopropyl)methanone], the half-maximal inhibitory concentration (IC50) lay in the range of 0.01 to 0.1 µM.

Consider `CC(=O)N1CCN(c2ccnc(-c3cnc4ccc(C(F)(F)F)cn34)n2)CC1(C)C` [I-336, 1-(2,2-dimethyl-4-(2-(6-(trifluoromethyl)imidazo[1,2-a]pyridin-3-yl)pyrimidin-4-yl)piperazin-1-yl)ethan-1-one], for which the IC50 fell in the range of 0.01 to 0.1 µM.

`C[C@H]1[C@@H](CNS(C)(=O)=O)NCCN1c1ccnc(-c2cnc3ccc(C(F)(F)F)cn23)n1` [I-436, N-(((2R,3 S)-3-methyl-4-(2-(6-(trifluoromethyl)imidazo[1,2-a]pyridin-3-yl)pyrimidin-4-yl)piperazin-2-yl)methyl)methanesulfonamide]: the IC50 lay within 0.01 to 0.1 µM.

Turning to `Cc1[nH]ncc1C1N[C@H](C)CN(c2nccc(-c3cnc4ccc(C(F)(F)F)cn34)n2)[C@@H]1C` (stereo partly drawn) [I-173, 3-(2-((2R,5R)-2,5-dimethyl-3-(5-methyl-1H-pyrazol-4-yl)piperazin-1-yl)pyrimidin-4-yl)-6-(trifluoromethyl)imidazo[1,2-a]pyridine], the IC50 is 0.1 to 1 µM.

For `CC1(C)CN(c2ccnc(-c3cnc4ccc(C(F)(F)F)cn34)n2)CCN1` [I-334, 3-(4-(3,3-dimethylpiperazin-1-yl)pyrimidin-2-yl)-6-(trifluoromethyl)imidazo[1,2-a]pyridine], the IC50 is 0.1 to 1 µM.

Take `Cc1noc(C2CN(c3ccnc(-c4cnc5ccc(C(F)(F)F)cn45)n3)CCN2C)n1` (centres unmarked) [I-332, 3-methyl-5-(1-methyl-4-(2-(6-(trifluoromethyl)imidazo[1,2-a]pyridin-3-yl)pyrimidin-4-yl)piperazin-2-yl)-1,2,4-oxadiazole]: the IC50 was 0.1 to 1 µM.

Take `CC1CN(c2ccnc(-c3cnc4ccc(C(F)(F)F)cn34)n2)CC(C)N1C1COC1` (centres unmarked) [I-234, 3-(4-(3,5-dimethyl-4-(oxetan-3-yl)piperazin-1-yl)pyrimidin-2-yl)-6-(trifluoromethyl)imidazo[1,2-a]pyridine]: the 50% inhibitory concentration (IC50) lay within 0.01 to 0.1 µM.

`C[C@@H]1CN(c2nccc(-c3cnc4ccc(C(F)(F)F)cn34)n2)C[C@H](c2nn[nH]n2)O1` [I-190, (2R,6R)-2-methyl-6-(2H-tetrazol-5-yl)-4-(4-(6-(trifluoromethyl)imidazo[1,2-a]pyridin-3-yl)pyrimidin-2-yl)morpholine] came in with an IC50 of 0.1 to 1 µM.

With `C[C@@H]1CN(c2ccnc(-c3cnc4ccc(C(F)(F)F)cn34)n2)C[C@H](C)N1CC1CCOCC1` [I-462, 3-(4-(cis-3,5-dimethyl-4-((tetrahydro-2H-pyran-4-yl)methyl)piperazin-1-yl)pyrimidin-2-yl)-6-(trifluoromethyl)imidazo[1,2-a]pyridine], the IC50 was in the range of 0.1 to 1 µM.

Turning to `Cc1nnc(C)n1[C@H]1C[C@@H](C)CN(c2nccc(-c3cnc4ccc(C(F)(F)F)cn34)n2)C1` [I-466, 3-(2-((3S,5R)-3-(3,5-dimethyl-4H-1,2,4-triazol-4-yl)-5-methylpiperidin-1-yl)pyrimidin-4-yl)-6-(trifluoromethyl)imidazo[1,2-a]pyridine], the half-maximal inhibitory concentration (IC50) lay in the range of 0.01 to 0.1 µM.

As for `C[C@@H]1C[C@@H](c2cn[nH]c2)CN(c2nccc(-c3cnc4ccc(Cl)cn34)n2)C1` (stereo in doubt) [I-195, 6-chloro-3-(2-((3R,5S)-3-methyl-5-(1H-pyrazol-4-yl)piperidin-1-yl)pyrimidin-4-yl)imidazo[1,2-a]pyridine], the IC50 was 0.01 to 0.1 µM.

With `O=C(N[C@H]1C[C@H](O)CN(c2ccnc(-c3cnc4ccc(C(F)(F)F)cn34)n2)C1)c1cn[nH]c1` [I-257, N-((3S,5S)-5-hydroxy-1-(2-(6-(trifluoromethyl)imidazo[1,2-a]pyridin-3-yl)pyrimidin-4-yl)piperidin-3-yl)-1H-pyrazole-4-carboxamide], the IC50 fell in the range of 0.1 to 1 µM.

For the molecule `FC(F)(F)c1ccc2ncc(-c3ccnc(N4CCN(C[C@H]5CCCOC5)[C@@H](c5cn[nH]c5)C4)n3)n2c1` [I-542, 3-(2-((S)-3-(1H-pyrazol-4-yl)-4-(((R)-tetrahydro-2H-pyran-3-yl)methyl)piperazin-1-yl)pyrimidin-4-yl)-6-(trifluoromethyl)imidazo[1,2-a]pyridine], the IC50 was less than 0.01 µM.

As for `CC1CN(c2ccnc(-c3cnc4ccc(C(F)(F)F)cn34)n2)CC(C)N1` (centres unmarked) [I-231, 3-(4-(3,5-dimethylpiperazin-1-yl)pyrimidin-2-yl)-6-(trifluoromethyl)imidazo[1,2-a]pyridine], the IC50 lay in the range of 0.1 to 1 µM.

`FC(F)(F)c1ccc2ncc(-c3nccc(N4CCN(CC5CC56CC6)C(c5cn[nH]c5)C4)n3)n2c1` (centres unmarked) [I-475, 3-(4-(3-(1H-pyrazol-4-yl)-4-(spiro[2.2]pentan-1-ylmethyl)piperazin-1-yl)pyrimidin-2-yl)-6-(trifluoromethyl)imidazo[1,2-a]pyridine] showed a half-inhibitory concentration (IC50) of 0.01 to 0.1 µM.

Regarding `C[C@H]1C[C@@H](N=S(C)(C)=O)CN(c2ccnc(-c3cnc4ccc(S(=O)(=O)NC5CC5)cn34)n2)C1` [I-319, N-cyclopropyl-3-(4-((3R,5S)-3-((dimethyl(oxo)-λ6-sulfaneylidene)amino)-5-methylpiperidin-1-yl)pyrimidin-2-yl)imidazo[1,2-a]pyridine-6-sulfonamide], the IC50 was in the range of 0.1 to 1 µM.

In turn, `Cc1oncc1C(=O)N1CCN(c2ccnc(-c3cnc4ccc(C(F)(F)F)cn34)n2)CC1c1cn[nH]c1` (centres unmarked) [I-515, (2-(1H-pyrazol-4-yl)-4-(2-(6-(trifluoromethyl)imidazo[1,2-a]pyridin-3-yl)pyrimidin-4-yl)piperazin-1-yl)(5-methylisoxazol-4-yl)methanone] yielded an IC50 of 0.1 to 1 µM.

Consider `NC(=O)[C@H]1CN(c2ccnc(-c3cnc4cc(F)c(Cl)cn34)n2)CCN1C1CC1` [I-425, (R)-4-(2-(6-chloro-7-fluoroimidazo[1,2-a]pyridin-3-yl)pyrimidin-4-yl)-1-cyclopropylpiperazine-2-carboxamide], for which the IC50 was in the range of 0.1 to 1 µM.

On to `NC(=O)CC1CCCN(c2ccnc(-c3cnc4ccc(C(F)(F)F)cn34)n2)C1` (centres unmarked) [I-166, 2-(1-(2-(6-(trifluoromethyl)imidazo[1,2-a]pyridin-3-yl)pyrimidin-4-yl)piperidin-3-yl)acetamide], for which the IC50 lay within 0.01 to 0.1 µM.

Take `O=C(O)CC1CCCN(c2ccnc(-c3cnc4ccc(C(F)(F)F)cn34)n2)C1` (centres unmarked) [I-165, 2-(1-(2-(6-(trifluoromethyl)imidazo[1,2-a]pyridin-3-yl)pyrimidin-4-yl)piperidin-3-yl)acetic acid]: the IC50 was 0.01 to 0.1 µM.

`NC(=O)CC1CN(c2ccnc(-c3cnc4ccc(C(F)(F)F)cn34)n2)C1` [I-230, 2-(1-(2-(6-(trifluoromethyl)imidazo[1,2-a]pyridin-3-yl)pyrimidin-4-yl)azetidin-3-yl)acetamide] gave an IC50 of 0.01 to 0.1 µM.

As to `CC1(C)CN(c2ccnc(-c3cnc4ccc(C(F)(F)F)cn34)n2)CCN1CC(F)(F)F` [I-333, 3-(4-(3,3-dimethyl-4-(2,2,2-trifluoroethyl)piperazin-1-yl)pyrimidin-2-yl)-6-(trifluoromethyl)imidazo[1,2-a]pyridine], the IC50 was 0.1 to 1 µM.

In turn, `O=C(O)C1(O)CCCN(c2ccnc(-c3cnc4ccc(C(F)(F)F)cn34)n2)C1` (centres unmarked) [I-214, 3-hydroxy-1-(2-(6-(trifluoromethyl)imidazo[1,2-a]pyridin-3-yl)pyrimidin-4-yl)piperidine-3-carboxylic acid] yielded an IC50 of 0.1 to 1 µM.

Staying with this experiment, now noted: Ki(app); 280 μM ATP, 200 μM (RS)7 peptide, 4 nM GCN2, 25° C.
As for `Cc1nnc([C@@H]2CN(c3ccnc(-c4cnc5ccc(Cl)cn45)n3)C[C@H](C)O2)o1` (relative stereo) [I-95, cis-4-(2-{6-chloroimidazo[1,2-a]pyridin-3-yl}pyrimidin-4-yl)-2-methyl-6-(5-methyl-1,3,4-oxadiazol-2-yl)morpholine], the Ki lay in the range of 0.01 to 0.1 µM.

Turning to `Cc1nnc([C@@H]2CN(c3ccnc(-c4cnc5ccc(C(F)(F)F)cn45)n3)C[C@H](C)O2)o1` (relative stereo) [I-93, cis-2-methyl-6-(5-methyl-1,3,4-oxadiazol-2-yl)-4-{2-[6-(trifluoromethyl)imidazo[1,2-a]pyridin-3-yl]pyrimidin-4-yl}morpholine], the Ki was in the range of 0.01 to 0.1 µM.

Consider `CC1CC(C(N)=O)C(C)N(c2ccnc(-c3cnc4cc(F)c(Cl)cn34)n2)C1` (centres unmarked) [I-52, 1-[2-(6-Chloro-7-fluoro-imidazo[1,2-a]pyridin-3-yl)pyrimidin-4-yl]-2,5-dimethyl-piperidine-3-carboxamide], for which the Ki was less than 0.01 µM.

Regarding `Cn1cc(NC(=O)[C@H]2CCCN(c3ccnc(-c4cnc5cc(F)c(Cl)cn45)n3)C2)cn1` [I-77, (S)-1-[2-(6-Chloro-7-fluoro-imidazo[1,2-a]pyridin-3-yl)-pyrimidin-4-yl]-piperidine-3-carboxylic acid (1-methyl-1H-pyrazol-4-yl)-amide], the Ki fell in the range of 0.1 to 1 µM.

Take `CS(C)(=O)=NC1CCCN(c2ccnc(-c3cnc4ccc(Cl)cn34)n2)C1` (centres unmarked) [I-30, ((1-(2-(6-Chloroimidazo[1,2-a]pyridin-3-yl)pyrimidin-4-yl)piperidin-3-yl)imino)dimethyl-λ^6-sulfanone]: the Ki was 0.1 to 1 µM.
